According to PubChem BioAssay (NCI):
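Briefly, cells in 96-well plates were exposed to five compound concentrations for 48 h, and endpoints were estimated by linear interpolation. The concentration for full growth arrest is given as TGI.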

Assays:
Assay in all cases: growth of human tumour cells (NCI), 48 h
A498 renal = tested on: A498 renal
MALME-3M melanoma = tested on: MALME-3M melanoma
MCF7 breast = tested on: MCF7 breast
NCI-H522 lung = tested on: NCI-H522 lung
OVCAR-4 ovarian = tested on: OVCAR-4 ovarian
SF-295 CNS = tested on: SF-295 CNS
UACC-257 melanoma = tested on: UACC-257 melanoma
UACC-62 melanoma = tested on: UACC-62 melanoma
M14 melanoma = tested on: M14 melanoma
TK-10 renal = tested on: TK-10 renal

Row | SMILES | TGI (A498 renal) | TGI (MALME-3M melanoma) | TGI (MCF7 breast) | TGI (NCI-H522 lung) | TGI (OVCAR-4 ovarian) | TGI (SF-295 CNS) | TGI (UACC-257 melanoma) | TGI (UACC-62 melanoma) | TGI (M14 melanoma) | TGI (TK-10 renal)
1 | O=C(O)c1cn2c3c(cc(N4CCN(CCO)CC4)cc3c1=O)SCC2 | > 100 µM | > 100 µM | > 100 µM | 94.2 µM | > 100 µM | > 100 µM | > 100 µM | > 100 µM |  | 
2 | CCOC(=O)C(C(=S)Nc1ccccc1)c1nn2c(=O)cc(C)nc2s1 (stereo unspecified) |  | 53.5 µM | 37.8 µM | 53.9 µM | > 100 µM | > 100 µM | 52.2 µM | 66.1 µM | 57.1 µM | 86.8 µM
3 | Cc1ccc(OC2CC(n3cnc4ncnc(Cl)c43)OC2Oc2ccc(C)cc2)cc1 (stereo unspecified) | > 100 µM | > 100 µM | 29.9 µM | > 100 µM | > 100 µM | 56.7 µM | > 100 µM | 96.7 µM | 65.8 µM | > 100 µM
4 | Nc1[nH]c(=S)nc2snnc12 | > 100 µM | > 100 µM | > 100 µM | > 100 µM |  | > 100 µM | > 100 µM | > 100 µM |  | > 100 µM
5 | COCOc1c(C(O[Si](C)(C)C(C)(C)C)c2cnc(Sc3ccccc3)n2C)ccc(OC)c1OC (stereo unspecified) |  | 8.93 µM | 3.8 µM | 3.58 µM | 16.2 µM | 6.18 µM | 4.6 µM | 3.91 µM |  | 16.3 µM
6 | CCOC(=O)c1ccc(C(=O)/C(C(C)=O)=C2\CCCN2C)n1C | > 100 µM | > 100 µM | > 100 µM | > 100 µM | > 100 µM | > 100 µM | > 100 µM | > 100 µM | > 100 µM | > 100 µM
7 | Fc1ccc2nc3n(c2c1)C(c1c(Cl)cccc1Cl)SC3 (stereo unspecified) | > 100 µM | > 100 µM | > 100 µM | > 100 µM | > 100 µM | > 100 µM | > 100 µM | > 100 µM | > 100 µM | > 100 µM
8 | CCOC(=O)NC(NC1=NCCS1)(C(=O)OCC)C(F)(F)F (stereo unspecified) | > 100 µM | > 100 µM | > 100 µM | > 100 µM | > 100 µM | > 100 µM | > 100 µM |  | > 100 µM | > 100 µM
9 | COc1ccc(/C=C2\CCC(CNc3ccc(OC)cc3)C2=O)cc1 (stereo unspecified) | > 66 µM | 47.3 µM | 13.3 µM | 11.6 µM | 45.7 µM | > 31.6 µM | 34.5 µM | 48 µM | 34.9 µM | 36 µM
10 | COC1(OC)CC(CO)(CNc2cc(Cl)nc(N)n2)C1 |  | > 100 µM | > 100 µM | > 100 µM | > 100 µM | > 100 µM | > 100 µM | > 100 µM |  | > 100 µM
11 | Cc1noc2nnn(-c3ccc(Cl)cc3)c(=O)c12 | 27.1 µM | 26 µM | 13.6 µM | 2.24 µM | 57.3 µM | 27.8 µM | 20.9 µM | 17.8 µM | 25.4 µM | 21.8 µM
12 | COc1ccc2sc(-n3nc4ccccc4c3Nc3nc4ccc(OC)cc4s3)nc2c1 | 5.63 µM | 14.8 µM | 42 µM | 17.2 µM | 6.82 µM | 12.8 µM | 19.5 µM | 10.8 µM | 35.8 µM | 11.8 µM
13 | CCOC(=O)C1OC(C2(C)OC3(OC4(C=CC3O)OC(C(C)C(=O)C(C)C(O)C(C)CC(C)c3c(Cl)cc(C)c(O)c3C(=O)O)C(C)CC4C)C(C)C2OC)CC1O (stereo unspecified) | 2.51 µM | 1.81 µM | 23.1 µM | 0.434 µM | 4.53 µM | 3.89 µM | 8.54 µM | 1.25 µM | 6.38 µM | 7.81 µM
14 | COc1ccc(/C=C2\N=C(c3ccccc3)N(N=C3NC(=O)CC(=O)N3)C2=O)cc1 | > 100 µM | > 100 µM | > 100 µM | > 100 µM | > 100 µM |  | > 100 µM | > 100 µM | > 100 µM | > 100 µM
15 | CC1OC2(CC(OCc3ccccc3)C1OCc1ccccc1)OCCO2 (stereo unspecified) | > 100 µM | > 100 µM | > 100 µM | > 100 µM | > 100 µM | > 100 µM | > 100 µM | > 100 µM | > 100 µM | > 100 µM
16 | Cc1ccc(-n2[nH]nc(C#N)c2=O)cc1 |  | > 100 µM | > 100 µM | > 100 µM | > 100 µM | > 100 µM | > 100 µM | > 100 µM | > 100 µM | > 100 µM
17 | c1ccc2c(c1)ncn2C1CCCCO1 (stereo unspecified) |  | > 100 µM | > 100 µM | > 100 µM | > 100 µM | > 100 µM | > 100 µM | > 100 µM | > 100 µM | > 100 µM
18 | N=C(N)SCc1ccc(Cl)cc1Cl (tested in a mixture with another compound) | 27.5 µM | 34.2 µM | 28.5 µM | 30.8 µM | 38.8 µM | 31.3 µM | 20.7 µM | 28.3 µM | 26.9 µM | 18.8 µM
19 | CCN1CCN(c2nc3ccc([N+](=O)[O-])cc3nc2C(=O)c2ccccc2)CC1 | 73.2 µM | 28.2 µM | 34.8 µM | 10.3 µM |  | 30.3 µM | 36.7 µM | 31.2 µM | 25.7 µM | 34.2 µM
20 | CSc1c(C#N)c(N)nc2c(N=Nc3ccc(Cl)cc3)c(N)nn12 | > 100 µM | 16.4 µM | 4.71 µM | 22.5 µM | 6.68 µM | 62.3 µM | 10.2 µM | 8.77 µM | 47.6 µM | 26.8 µM
21 | O=C/C=C/c1ccco1 | > 100 µM | > 100 µM | > 100 µM | > 100 µM | > 100 µM | > 100 µM | > 100 µM | > 100 µM | > 100 µM | > 100 µM
22 | Cc1cc(Cc2c(F)c(F)c(C(c3cc(C)no3)c3c(F)c(F)c(F)c(F)c3F)c(F)c2F)on1 (stereo unspecified) | > 100 µM | > 100 µM | > 100 µM | > 100 µM | > 100 µM | > 100 µM | > 100 µM | > 100 µM | > 100 µM | > 100 µM
